Molecules are shown by their SMILES.

In this assay the target is T1, HDAC6 (Homo sapiens, UniProt Q9UBN7).
T1 construct: Full length human recombinant HDAC6 protein; made in house
T1 sequence (Q9UBN7 1-1215): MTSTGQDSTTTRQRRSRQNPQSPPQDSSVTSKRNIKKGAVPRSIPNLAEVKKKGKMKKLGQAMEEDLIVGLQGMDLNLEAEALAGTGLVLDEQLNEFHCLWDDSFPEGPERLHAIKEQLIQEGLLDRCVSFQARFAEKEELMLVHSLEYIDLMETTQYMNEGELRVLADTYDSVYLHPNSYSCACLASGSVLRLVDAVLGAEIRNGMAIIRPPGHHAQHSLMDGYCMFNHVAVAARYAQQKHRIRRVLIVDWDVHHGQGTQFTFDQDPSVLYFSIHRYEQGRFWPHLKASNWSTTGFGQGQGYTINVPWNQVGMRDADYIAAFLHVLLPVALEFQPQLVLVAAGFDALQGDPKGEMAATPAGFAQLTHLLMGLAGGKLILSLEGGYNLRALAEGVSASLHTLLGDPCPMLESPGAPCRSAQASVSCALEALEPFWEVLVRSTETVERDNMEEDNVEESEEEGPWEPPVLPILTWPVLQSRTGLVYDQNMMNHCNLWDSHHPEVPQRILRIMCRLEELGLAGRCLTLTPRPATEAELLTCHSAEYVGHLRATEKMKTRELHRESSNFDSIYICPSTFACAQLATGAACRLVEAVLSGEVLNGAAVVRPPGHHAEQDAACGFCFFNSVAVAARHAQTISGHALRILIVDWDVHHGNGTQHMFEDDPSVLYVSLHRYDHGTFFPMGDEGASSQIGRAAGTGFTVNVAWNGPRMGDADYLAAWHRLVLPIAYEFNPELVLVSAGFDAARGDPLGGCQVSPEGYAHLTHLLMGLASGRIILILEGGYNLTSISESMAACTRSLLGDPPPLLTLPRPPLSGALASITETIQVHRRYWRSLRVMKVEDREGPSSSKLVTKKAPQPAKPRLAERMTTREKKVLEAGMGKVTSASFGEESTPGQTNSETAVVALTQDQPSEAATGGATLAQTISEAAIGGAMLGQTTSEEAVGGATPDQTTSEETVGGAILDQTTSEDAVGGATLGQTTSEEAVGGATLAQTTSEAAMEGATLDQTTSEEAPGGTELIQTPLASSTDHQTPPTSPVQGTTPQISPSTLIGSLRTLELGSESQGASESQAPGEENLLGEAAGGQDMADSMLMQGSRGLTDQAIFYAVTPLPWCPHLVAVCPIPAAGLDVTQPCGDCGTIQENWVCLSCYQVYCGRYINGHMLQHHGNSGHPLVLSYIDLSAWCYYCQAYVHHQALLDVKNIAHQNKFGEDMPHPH
The assay can be described thus: In vitro histone deacetylase assay: enzymatic HDAC6 assay by electrophoretic mobility shift. In kind it is biochemical. The following applies: full length human recombinant HDAC6 1 nM, 2 μM peptide substrate RHKK(Ac)-NH2, 25° C., 12 concentrations; read-out: Inhibitory Concentration (IC50) against HDAC6, Activity Range. As for the experimental part:
The enzymatic HDAC6 assay was performed using electrophoretic mobility shift assay. […] The enzymatic reactions were assembled in 384-well plates in a total volume of 25 μL of a reaction buffer comprising. 100 mM HEPES, pH 7.5, 25 mM KCl, 0.1% bovine serum albumin, 0.01% Triton X-100, 1% DMSO (from compounds), 2 μM of the fluorescently labeled peptide substrate, and enzyme. The enzyme was added at a final concentration of 1 nM. The peptide substrate RHKK(Ac)-NH2 was used. The compounds were tested at 12 concentrations spaced by 3× dilution intervals. Negative control samples (0%-inhibition in the absence of inhibitor) and positive control samples (100%-inhibition) were assembled in replicates of four in each assay plate. The reactions were incubated at 25° C. and quenched by the addition of 45 μL of termination buffer (100 mM HEPES, pH 7.5, 0.01% Triton X-100, 0.05% SDS).
The terminated assay plates were analyzed on LabChip® 3000 microfluidic electrophoresis instrument (Perkin Elmer/Caliper Life Sciences). The fluorescence intensity of the electrophoretically separated de-acetylated product and substrate peptide was measured. Activity in each sample was determined as the product to sum ratio (PSR):P/(S+P), where P is the peak height of the product peptide and S is the peak height of the substrate peptide. Percent inhibition (Pinh) is determined using the following equation:
Pinh=(PSR0%−PSRinh)/(PSR0%−PSR100%)*100, where PSRinh is the product sum ratio in the presence of inhibitor, PSR0% is the average product sum ration in the absence of inhibitor, and PSR100% is the average product sum ratio in 100%-inhibition control samples. The IC50 values of inhibitors were determined by fitting the %-inhibition curves with 4 parameter dose-response models using XLfit 4 software.
For orientation: Mobility shift assays separate free from complexed probe on a gel.
As for `O=C(NO)c1ccc2c(c1)OC[C@@H](c1cccnc1)N(C(=O)C1CCOCC1)C2` (single isomer, unassigned), the IC50 is at most 0.1 µM. With `O=C(NO)c1ccc2c(c1)OC[C@@H](c1ccccc1C(F)(F)F)N(C(=O)C1CCOCC1)C2` (single isomer, unassigned) the figure was over 0.5 µM. Then `O=C(NO)c1ccc2c(c1)OC[C@@H](c1cccc(C(F)(F)F)c1)N(C(=O)C1CCOCC1)C2` (single isomer, unassigned), with 0.1 to 0.5 µM. For the compound `O=C(NO)c1ccc2c(c1)OC[C@H](c1cccnc1)N(C(=O)C1CCOCC1)C2` (single isomer, unassigned), the IC50 lay within 0.1 to 0.5 µM. With `O=C(NO)c1ccc2c(c1)OC[C@H](c1ccccc1)N(C(=O)[C@@H]1CCCOC1)C2` (single isomer, unassigned) the figure was at most 0.1 µM.

In the case of `O=C(NO)c1ccc2c(c1)OC[C@H](c1ccccc1)N(C(=O)[C@@H]1CCOC1)C2` (single isomer, unassigned), the IC50 was at most 0.1 µM. For the compound `O=C(NO)c1ccc2c(c1)OC[C@H](c1ccccc1)N(C(=O)[C@H]1CCCOC1)C2` (single isomer, unassigned), the IC50 was at most 0.1 µM.

Take `O=C(NO)c1ccc2c(c1)OC[C@H](c1ccccc1)N(C(=O)[C@H]1CCOC1)C2` (single isomer, unassigned): the IC50 is at most 0.1 µM. Regarding `O=C(NO)c1ccc2c(c1)OC[C@H](c1ccccc1C(F)(F)F)N(C(=O)C1CCOCC1)C2` (single isomer, unassigned), the IC50 was at most 0.1 µM. Then `O=C(NO)c1ccc2c(c1)OC[C@H](c1cccc(C(F)(F)F)c1)N(C(=O)C1CCOCC1)C2` (single isomer, unassigned), with at most 0.1 µM; and `O=C(NO)c1ccc2c(c1)OC[C@H](c1ccccc1)N(C(=O)C1CC3CCC(C1)O3)C2` (stereo partly drawn) [(3S)-4-(8-oxabicyclo[3.2.1]octane-3-carbonyl)-N-hydroxy-3-phenyl-2,3,4,5-tetrahydrobenzo[f][1,4]oxazepine-8-carboxamide], with at most 0.1 µM; and `O=C(NO)c1ccc2c(c1)OC[C@H](c1ccccc1)N(C(=O)C1CCCO1)C2` (stereo partly drawn) [(3S)-N-hydroxy-3-phenyl-4-(tetrahydrofuran-2-carbonyl)-2,3,4,5-tetrahydrobenzo[f][1,4]oxazepine-8-carboxamide], with at most 0.1 µM.

`O=C(NO)c1ccc2c(c1)OC[C@@H](c1ccccc1F)N(C(=O)C1CCOCC1)C2` [(R)-3-(2-fluorophenyl)-N-hydroxy-4-(tetrahydro-2H-pyran-4-carbonyl)-2,3,4,5-tetrahydrobenzo[f][1,4]oxazepine-8-carboxamide]: the IC50 lay in the range of 0.1 to 0.5 µM. Turning to `O=C(NO)c1ccc2c(c1)OC[C@@H](c1ccccc1)N(C(=O)C1CCOCC1)C2` [(R)-N-hydroxy-3-phenyl-4-(tetrahydro-2H-pyran-4-carbonyl)-2,3,4,5-tetrahydrobenzo[f][1,4]oxazepine-8-carboxamide], the IC50 is over 0.5 µM. Then `O=C(NO)c1ccc2c(c1)OC[C@H](c1ccccc1F)N(C(=O)C1CCOCC1)C2` [(S)-3-(2-fluorophenyl)-N-hydroxy-4-(tetrahydro-2H-pyran-4-carbonyl)-2,3,4,5-tetrahydrobenzo[f][1,4]oxazepine-8-carboxamide], with at most 0.1 µM. Then `O=C(NO)c1ccc2c(c1)OC[C@H](c1cccc(Cl)c1)N(C(=O)C1CCOCC1)C2` [(S)-3-(3-chlorophenyl)-N-hydroxy-4-(tetrahydro-2H-pyran-4-carbonyl)-2,3,4,5-tetrahydrobenzo[f][1,4]oxazepine-8-carboxamide], with at most 0.1 µM; and `O=C(NO)c1ccc2c(c1)OC[C@H](c1cccc(F)c1)N(C(=O)C1CCOCC1)C2` [(S)-3-(3-fluorophenyl)-N-hydroxy-4-(tetrahydro-2H-pyran-4-carbonyl)-2,3,4,5-tetrahydrobenzo[f][1,4]oxazepine-8-carboxamide], with at most 0.1 µM. As for `O=C(NO)c1ccc2c(c1)OC[C@H](c1ccc(Cl)cc1)N(C(=O)C1CCOCC1)C2` [(S)-3-(4-chlorophenyl)-N-hydroxy-4-(tetrahydro-2H-pyran-4-carbonyl)-2,3,4,5-tetrahydrobenzo[f][1,4]oxazepine-8-carboxamide], the IC50 was at most 0.1 µM.

`O=C(NO)c1ccc2c(c1)OC[C@H](c1ccc(F)cc1)N(C(=O)C1CCOCC1)C2` [(S)-3-(4-fluorophenyl)-N-hydroxy-4-(tetrahydro-2H-pyran-4-carbonyl)-2,3,4,5-tetrahydrobenzo[f][1,4]oxazepine-8-carboxamide]: the IC50 is at most 0.1 µM. Then `CC(=O)N1CCC(C(=O)N2Cc3ccc(C(=O)NO)cc3OC[C@@H]2c2ccccc2)CC1` [(S)-4-(1-acetylpiperidine-4-carbonyl)-N-hydroxy-3-phenyl-2,3,4,5-tetrahydrobenzo[f][1,4]oxazepine-8-carboxamide], with at most 0.1 µM; and `O=C(NO)c1ccc2c(c1)OC[C@H](c1ccccc1)N(C(=O)c1ccc(F)cc1)C2` [(S)-4-(4-fluorobenzoyl)-N-hydroxy-3-phenyl-2,3,4,5-tetrahydrobenzo[f][1,4]oxazepine-8-carboxamide], with at most 0.1 µM; and `O=C(NO)c1ccc2c(c1)OC[C@H](c1ccccc1)N(C(=O)C1(F)CCOCC1)C2` [(S)-4-(4-fluorotetrahydro-2H-pyran-4-carbonyl)-N-hydroxy-3-phenyl-2,3,4,5-tetrahydrobenzo[f][1,4]oxazepine-8-carboxamide], with at most 0.1 µM.

Consider `O=C(NO)c1ccc2c(c1)OC[C@H](c1ccccc1)N(C(=O)C1CCC1)C2` [(S)-4-(cyclobutanecarbonyl)-N-hydroxy-3-phenyl-2,3,4,5-tetrahydrobenzo[f][1,4]oxazepine-8-carboxamide], for which the IC50 is at most 0.1 µM. On to `O=C(NO)c1ccc2c(c1)OC[C@H](c1ccccc1)N(C(=O)C1CCCCC1)C2` [(S)-4-(cyclohexanecarbonyl)-N-hydroxy-3-phenyl-2,3,4,5-tetrahydrobenzo[f][1,4]oxazepine-8-carboxamide], for which the IC50 is at most 0.1 µM. Then `O=C(NO)c1ccc2c(c1)OC[C@H](c1ccccc1)N(C(=O)C1CCCC1)C2` [(S)-4-(cyclopentanecarbonyl)-N-hydroxy-3-phenyl-2,3,4,5-tetrahydrobenzo[f][1,4]oxazepine-8-carboxamide], with at most 0.1 µM.

With `CC(=O)N1Cc2ccc(C(=O)NO)cc2OC[C@@H]1c1ccccc1` [(S)-4-acetyl-N-hydroxy-3-phenyl-2,3,4,5-tetrahydrobenzo[f][1,4]oxazepine-8-carboxamide], the IC50 is at most 0.1 µM. Then `O=C(NO)c1ccc2c(c1)OC[C@H](c1ccccc1)N(C(=O)C1CCOCC1)C2` [(S)-N-hydroxy-3-phenyl-4-(tetrahydro-2H-pyran-4-carbonyl)-2,3,4,5-tetrahydrobenzo[f][1,4]oxazepine-8-carboxamide], with at most 0.1 µM.

`O=C(NO)c1ccc2c(c1)OC[C@H](c1ccccc1)N(C(=O)c1ccccn1)C2` [(S)-N-hydroxy-3-phenyl-4-picolinoyl-2,3,4,5-tetrahydrobenzo[f][1,4]oxazepine-8-carboxamide]: the IC50 was at most 0.1 µM.

These data come from patent US11274084B2, “3-aryl-4-amido-bicyclic [4,5,0] hydroxamic acids as HDAC inhibitors” (Valo Health, Inc., priority 2015, dated 2022).
